The values that follow come from patent US8609162B2, “Integrated neuromodulation system for mood enhancement of a living human subject” (priority 2012, dated 2013).

For data set [1] the following is noted: doses as low as; cited from earlier work.
In data set [2] the test system is normal, healthy volunteers. The experiment in a line: clinical trial of subjective mood enhancement after ingestion of the prepared beverage, eight test groups. The class given is in vivo, human. The conditions noted are these: for duration of effect: following ingestion of the prepared beverage; for Score, subjective feeling of mood enhancement: scale of 0 (no change) to 10 (euphoric), N=10 per group, oral solution in 125 mL juice, 10 day period; for mood effect as described: subjective report in words. On the procedure:
A set of clinical trials were performed using the median dosing of a ‘typical formulation’ in randomly selected normal, healthy volunteers ranging from 14 to 80 years (mean age 44.5 years) greater than 50 kg body weight over a 10 day period. At the end of the clinical trial, subjects were asked to subjectively rate the feeling of mood enhancement, ranging from a scale of 0 (no change) to 10 (euphoric) and to rate the duration of effect (in hours) following ingestion of the prepared beverage. Members also were encouraged to report any side effects, if any.
Eight different test groups of ten human subjects each (N=10) were devised as follows:
Test Group 1: Oral solution containing 125 mL juice (7% carbohydrate), 3 times daily. This formulation represents placebo.
Test Group 2: L-Phenylalanine, 800 mg and mucina pruriens, 15% L-DOPA, 200 mg oral solution in 125 mL juice (containing 7% carbohydrate), 3 times daily. This nootropic formulation affects the following neurotransmitter systems: dopamine agonist, a stimulant. The type number ratio is 2:0:0:0:0 to produce a ΔN=+2. This agent fails the test for producing predictable mood enhancement because it is has an imbalanced type number ratio, resulting in a net stimulatory effect (ΔN=+2), and producing a predictable mood over stimulation.
Test Group 3: Phenylethylamine hydrochloride, 400 mg oral solution in 125 mL juice (containing 7% carbohydrate), single dose. This nootropic formulation affects the following neurotransmitter systems: dopamine agonist, a stimulant. The type number ratio is 1:0:0:0:0 to produce a ΔN=+1. This agent fails the test for producing predictable mood enhancement because it is has an imbalanced type number ratio, resulting in a net stimulatory effect (ΔN=+1), and producing a predictable mood over stimulation.
Test Group 4: Dimethylaminoethanol bitartrate, 300 mg oral solution in 125 mL juice (containing 7% carbohydrate), 3 times daily. This nootropic formulation affects the following neurotransmitter systems: acetylcholine agonist, an inhibitor. The type number ratio is 0:1:0:0:0 to produce a ΔN=−1. This agent fails the test for producing predictable mood enhancement because it is has an imbalanced type number ratio, resulting in a net inhibitory effect (ΔN=−1), and producing a predictable mood suppression.
Test Group 5: S-Adenosyl-methionine tosylate disulfate, 300 mg oral solution in 125 mL juice (containing 7% carbohydrate), 3 times daily. This nootropic formulation affects the following neurotransmitter systems: serotonin agonist, an inhibitor. The type number ratio is 0:0:1:0:0 to produce a ΔN=−1. This agent fails the test for producing predictable mood enhancement because it is has an imbalanced type number ratio, resulting in a net inhibitory effect (ΔN=−1), and producing a predictable mood suppression.
Test Group 6: Anhydrous caffeine, 80 mg oral solution in 125 mL juice (containing 7% carbohydrate), 3 times daily. This nootropic formulation affects the following neurotransmitter systems: adenosine antagonist, a stimulant. The type number ratio is 0:0:0:0:1 to produce a ΔN=+1. This agent fails the test for producing predictable mood enhancement because it is has an imbalanced type number ratio, resulting in a net stimulatory effect (ΔN=+1), and producing a predictable mood over stimulation.
Test Group 7: L-Theanine, 200 mg oral solution in 125 mL juice (containing 7% carbohydrate), 3 times daily. This nootropic formulation affects the following neurotransmitter systems: GABA agonist, an inhibitor. The type number ratio is 0:0:0:1:0 to produce a ΔN=−1. This agent fails the test for producing predictable mood enhancement because it is has an imbalanced type number ratio, resulting in a net inhibitory effect (ΔN=−1), and producing a predictable mood suppression. […]

Regarding `CCN(CC)C(=O)[C@@H]1C=C2c3cccc4[nH]cc(c34)C[C@H]2N(C)C1` [LSD], the “dose producing hallucinogenic and entheogenic effects” value in data set [1] was 30 to 40 µg.

Take `Cl.NCCc1ccccc1` [Test Group 3, Phenylethylamine hydrochloride]: the side effects reported result in data set [2] (10 subjects per group) is listed as “flushing in 4 of 10 subjects”. The duration of effect result in data set [2] is listed as “less than 30 minutes”. Also, in data set [2], the “Score, subjective feeling of mood enhancement” value (“Score, subjective feeling” below) is given as 7.5. The “mood effect as described” value in data set [2] (hydrochloride) is reported as “temporary euphoric feeling”; in data set [2] (listed as Phenylethyamine hydrochloride, hydrochloride), “noticeable but short-term effect”.

Regarding `Cn1c(=O)c2c(ncn2C)n(C)c1=O` [Test Group 6, Anhydrous caffeine], the side effects reported entry in data set [2] (10 subjects per group) is “No side effects reported”. In addition, in data set [2], the duration of effect came out at 2 h; the “Score, subjective feeling” value is listed as 3.0; the “mood effect as described” value is given as “felt alert”.

`CCNC(=O)CC[C@H](N)C(=O)O` [Test Group 7, L-Theanine]: in data set [2], the duration of effect was 3 h; the “Score, subjective feeling” value turned out to be 6.5; the “mood effect as described” value is recorded as “very calm, sedative-like effect”. In addition, the side effects reported entry in data set [2] (human, in vivo) is recorded as “No side effects reported”.

Turning to “Dimethylaminoethanol bitartrate [Test Group 4]”, the side effects reported result in data set [2] (10 subjects per group) was “headache in 1 of 10 subjects”. Besides, in data set [2], the duration of effect result is “less than 1 hours”; the “Score, subjective feeling” value was determined as 2.0; the “mood effect as described” value was “mild effect”.

With “S-Adenosyl-methionine tosylate disulfate [Test Group 5]”, in data set [2] (10 subjects per group), the side effects reported entry is “No side effects reported”. Also, in data set [2], the duration of effect is 3 h; the “Score, subjective feeling” value is 6.0; the “mood effect as described” value was “better mood”. Besides, the “mood effect as described” value in data set [2] (listed as S-adenosyl-methionine tosylate disulfate) is “moderate mood enhancement”.
